The text below walks through data of patent US5827838A, “Method for the treatment of diseases related with protein isoprenylation” (priority 1994, dated 1998).

Read-outs that look alike come from different tables or passages of the source.

In series [1] the target is T1, protein;farnesyl transferase (Oryctolagus cuniculus, UniProt G1SFC8+G1T7D9). As to the kind of experiment: Inhibition of protein;farnesyl transferase using C-terminal octapeptide pre-p21N-ras coupled to Sepharose beads as substrate. More on the design: substrate N-ras C-terminal octapeptide on Sepharose beads. The format is biochemical, rabbit.
Series [2] concerns the target T1, protein;farnesyl transferase. As to the kind of experiment: Inhibition of farnesylation of H-ras protein (p21ras precursor) by farnesyl:protein transferase in rabbit reticulocyte lysate, [3H]-FPP incorporation. The conditions noted are these: different amounts of compound.
Target sequence in this assay (G1T7D9 entry or part of it, one chain of several): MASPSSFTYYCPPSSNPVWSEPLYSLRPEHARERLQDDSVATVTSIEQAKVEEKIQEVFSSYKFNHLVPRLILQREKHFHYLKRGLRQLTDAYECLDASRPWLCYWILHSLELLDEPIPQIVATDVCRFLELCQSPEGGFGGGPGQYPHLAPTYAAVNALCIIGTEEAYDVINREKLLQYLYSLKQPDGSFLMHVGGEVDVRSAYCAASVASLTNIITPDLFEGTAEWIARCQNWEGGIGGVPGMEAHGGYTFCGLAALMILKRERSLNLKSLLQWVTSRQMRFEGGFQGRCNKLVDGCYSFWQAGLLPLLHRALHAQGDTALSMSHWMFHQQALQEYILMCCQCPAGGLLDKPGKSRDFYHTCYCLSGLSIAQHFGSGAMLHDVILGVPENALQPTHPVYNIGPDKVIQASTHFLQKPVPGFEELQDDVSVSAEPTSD
Series [3] addresses T2, squalene synthase (Rattus norvegicus, UniProt Q02769).
T2 construct: squalene synthase in rat liver microsomal preparations; from tissue; host or cells: rat liver microsomes
T2 sequence (Q02769 1-416): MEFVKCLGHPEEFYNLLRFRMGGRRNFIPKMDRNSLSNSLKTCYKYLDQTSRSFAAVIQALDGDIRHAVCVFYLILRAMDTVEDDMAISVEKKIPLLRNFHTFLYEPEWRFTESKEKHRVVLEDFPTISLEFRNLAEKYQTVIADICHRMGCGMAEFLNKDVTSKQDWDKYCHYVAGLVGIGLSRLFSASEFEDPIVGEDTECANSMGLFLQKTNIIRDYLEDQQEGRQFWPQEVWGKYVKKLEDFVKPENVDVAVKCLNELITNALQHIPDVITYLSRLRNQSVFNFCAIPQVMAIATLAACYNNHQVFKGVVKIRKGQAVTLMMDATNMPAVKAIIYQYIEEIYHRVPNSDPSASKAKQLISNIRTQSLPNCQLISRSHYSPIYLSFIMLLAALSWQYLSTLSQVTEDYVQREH
As to the kind of experiment: Inhibition of squalene synthase in rat liver microsomal preparations. The series is classed as biochemical. The conditions noted are these: at dosage amounts inhibiting p21ras farnesyl transferase.

For series [4], the system named is farnesylation of p21ras in Rat-1.H-ras13 cells. The series is classed as cell-based, rat cells overexpressing human p21Ha-ras. The conditions noted are these: 24 h. Here is the method:
It was shown now that compound 3 acts as a protein: farnesyl transferase inhibitors in cultured cells. For this purpose Rat-1.H-ras13 cells, which overexpress human p21^Ha-ras (Downword J. et al., Proc. Natl. Acad. Sci. U.S.A. 1988; 85; 5774-5778), were used. These cells were incubated with [^3 H]-mevalonate and 0, 0.1, 1, 10 and 100 μM of compound 3 for 24 h in DMEM containing 1% human serum albumin and 2.5 μM of simvastatin.
Thereafter cells were lysed in 300 μl PBS supplemented with 1% Triton X-100, 0.5% sodium deoxycholate, and the protease inhibitors phenylmethylsulfonylfluoride (1 mM), leupeptine (50 μg/ml), pepstatin A (50 μg/ml) and trasylol (300 K.I.U./ml), and p21^ras was collected on immobilized monoclonal antibody Y13-259 (Osterop A.P.R.M. et al., J. Biol. Chem. 1992; 267; 14647-14653). After separation by SDS polyacrylamide gel electrophoresis the [^3 H]-labelled polypeptides were visualized by autoradiography.

Series [5] deals with Rat-1.H-ras13 cells. As to the kind of experiment: Inhibition of cell proliferation of transformed Rat-1.H-ras13 cells (cell count, trypan blue exclusion). The series is classed as cell-based. The conditions noted are these: 10 days. Here is the method: Cells were cultured for 10 days in DMEM supplemented with 10% fetal calf serum in the presence of 0, 25 or 100 μM of compound 3. At day 0, cells were plated in monolayer culture at 5×10^3 cells per well (6 well plates). On day 3 and 7, cells were re-fed with the same medium. On day 10, cells were harvested by trypsinization and counted using a standard hemocytometer chamber. Values are the mean of triplicate countings of duplicate incubations. In these ten days control cells had been proliferated exponentially to 1.94×10^6 ±0.04×10^6 cells per well.

[6] abbreviates: read-out: IC50, inhibition of protein;farnesyl transferase; octapeptide pre-p21N-ras on Sepharose beads as substrate.

`CC(C)=CCCC(C)=CCCC(C)=CCC(CC=C(C)CCC=C(C)CCC=C(C)C)(P(=O)(O)O)P(=O)(O)O` [bisfarnesylmethylenebis(phosphonic acid), reference compound]: the half-maximal inhibitory concentration (IC50) in series [1] (octapeptide pre-p21N-ras on Sepharose beads as substrate; read-out: IC50, inhibition of protein;farnesyl transferase) is 147000 ± 37000 nM.

Turning to `CC(C)=CCCC(C)=CCCC(C)=CCCP(=O)(O)OP(=O)(O)O` [compound 1, farnesylmethylphosphonophosphate], in series [1] (setting [6]), the half-inhibitory concentration (IC50) was 930 ± 230 nM. In series [2], the “enzyme activity (farnesyl:protein transferase), result in words” value was “concentration-dependently decreased”. Also, in series [3], the “inhibition of squalene synthesis at amounts that inhibit p21ras farnesyl transferase, result in words” value is recorded as “without inhibiting squalene synthesis”.

Regarding `CC(C)=CCCC(C)=CCCC(C)=CCP(=O)(O)OP(=O)(O)O` [compound 3, farnesylphosphonophosphate], the half-inhibitory concentration (IC50) in series [1] (setting [6]) is 340 ± 50 nM; in series [4] (DMEM with 1% human serum albumin and 2.5 μM simvastatin, read-out: IC50, inhibition of farnesylation of p21ras in cells), 1000 to 10000 nM. Also, in series [2], the “enzyme activity (farnesyl:protein transferase), result in words” value is recorded as “concentration-dependently decreased”. In addition, the “radioactivity measured in p21ras / farnesylation of ras protein, result in words” value in series [4] (100 μM) is reported as “no radioactivity was measured, showing that the farnesylation of the ras protein was totally blocked”. In series [4] (increasing concentrations (0.1, 1, 10, 100 μM)), the “radioactivity incorporated into p21ras, result in words” value is recorded as “less radioactivity was incorporated into p21^ras”. Also, in series [5] (0, 25 or 100 μM), the “non-viable cells, trypan blue exclusion” value is given as “no non-viable cells”. Further, the “inhibition of proliferation of transformed cells, result in words” value in series [5] (25 and 100 μM) is recorded as “concentration-dependently inhibits the proliferation of transformed cells in culture”. Further, in series [5] (Rattus norvegicus, 240 h, 25 μM, read-out: reduction in cell numbers (of control values)), the inhibition at 25 µM was 32.5%. Moreover, the inhibition at 100 µM in series [5] (Rattus norvegicus, 240 h, 100 μM, read-out: reduction in cell numbers (of control values)) is 49.5%. In addition, in series [3], the “inhibition of squalene synthesis at amounts that inhibit p21ras farnesyl transferase, result in words” value is recorded as “without inhibiting squalene synthesis”.

On to `CC(C)=CCCC(C)=CCCC(C)=CCOCP(=O)(O)OP(=O)(O)O` [compound 5, farnesyloxymethylphosphono-phosphate], for which, in series [1] (setting [6]), the half-inhibitory concentration (IC50) turned out to be 520 ± 70 nM.

With `CC(C)=CCCC(C)=CCCC(C)=CCC(OCP(=O)(O)O)P(=O)(O)O` (stereo not shown) [compound 6, farnesyl(phosphono)methoxymethylphosphonic acid], the IC50 in series [1] (read-out: IC50, inhibition of protein;farnesyl transferase; octapeptide pre-p21N-ras on Sepharose beads as substrate; unit μm [sic]) stood at 580 ± 440 nM.
